Counter-ions that a name gives are not always drawn. Like-named read-outs stand apart in the source and are kept apart here.
What was measured:
LHON cybrids (11778 G>A) = assay: Complex I-driven ATP synthesis in rotenone-inhibited LHON mutant cybrids (luciferase-based, high-throughput screen and concentration-response); type: cell-based
Ndufs4 knockout mice = assay: Visual cliff test; type: in vivo, mouse; details: P21-P35 treatment; papaverine 20 mg/kg, zolpidem 20 mg/kg, rapamycin 8 mg/kg i.p.; idebenone 200 mg/kg oral
[1] = system: innate immune/inflammatory response in Ndufs4 KO retina; assay: Retinal gene expression of innate immune and inflammatory markers after drug treatment (Example 3); type: in vivo, mouse; details: Ndufs4 KO mice; doses as in drug formulation
Method: The graphs represent RNA expression of B2m (FIG. 21A), Tlr2 (FIG. 21B), Cxc110 (FIG. 21C), Cc15 (FIG. 21D), and Aif1 (FIG. 21E) in the wild type and Ndufs4 knockout retina. Bars represent mean delta Ct values normalized to housekeeping genes, Actb and Mapk1. Error bars represent standard error of the mean. Statistical significance was determined by two-tailed student's t test. * P<0.05, ** P<0.01, **** P<0.0001.
(§1) Wild type and Ndufs4 knockout mice were placed in one of five groups: vehicle, papaverine (20 mg/kg), zolpidem (20 mg/kg), rapamycin (8 mg/kg), or idebenone (200 mg/kg). For papaverine, zolpidem, and rapamycin, drug was dissolved in DMSO which was diluted in 5% PEG-400/5% Tween-20 in PBS. Vehicle contained all components except for the drug. The solution was then sterile filtered and intraperitoneal injections were performed using a 30 gauge needle. Idebenone was administered as a jelly and consumed orally.
We have previously shown that inflammatory gene expression of Aif1, Tlr2, B2m, Cc15, and Cxc110 are all elevated in the Ndufs4 KO mouse compared to wild type by more than 3-fold, indicating an inflammatory pathomechanism of mitochondrial blindness (Yu et al., Proc Natl Acad Sci USA, 2015, 112(42): E5689-98). […] Papaverine, zolpidem, rapamycin, and idebenone were administered to Ndufs4 KO mice to determine whether their protection of vision (FIG. 20) was through an anti-inflammatory mechanism of action. […] Thus, papaverine, zolpidem, and rapamycin appear to protect mitochondrial loss of vision through an antiinflammatory mechanism.

[2] = system: control osteosarcoma cells and LHON mutant (11778 G>A) cells; assay: Validation of complex I-driven ATP synthesis assay with substrates and inhibitors of mitochondrial complexes; type: cell-based; details: for mitochondrial ATP synthesis: inhibitor at 1 μM, malate/pyruvate substrates, permeabilized cells
From the text: The data is presented as ATP synthesis rate+standard deviation from one representative experiment.

[3] = system: inflammatory genes in retinas of Ndufs4 KO mice; assay: qRT-PCR of inflammatory genes in retinas after rapamycin treatment (Example 1); type: in vivo, mouse; details: rapamycin 8 mg/kg intraperitoneally for 9 days
Method: FIG. 6 depicts an experimental reversal of inflammatory gene induction by rapamycin. White bars, a mean increase in transcript level of 16/16 inflammatory markers was observed by qRT-PCR in retinas of Ndufs4 KO mice compared to wild type. […] Statistical significance determined by student's t test. * P<0.05, ** P<0.01.
Rapamycin was dissolved in DMSO to 100 mg/mL. This was diluted in 5% PEG-400/5% Tween-20 (vehicle) to a concentration of 0.6 mg/mL, sterile filtered, and stored at −80 for long-term storage. Rapamycin treated mice were injected with 132 microliters/10 g body weight for a final dose of 8.0 mg/kg (Johnson et al., Science, 2013, 342, 1524-1528). Vehicle mice were injected with equal volume of PBS and DMSO lacking rapamycin. […]
The change in PCR products as the reaction proceeded was monitored by SYBR green dye (Invitrogen, Grand Island, N.Y.). […] Quantification cycle (Cq) values obtained by the Lightcycler were analyzed by normalizing the values to the reference genes and delta Cq values were calculated to determine relative gene expression values compared to wild type. Delta delta Cq was also calculated to determine the fold change difference between Ndufs4 knockout and wild type. Significance, p<0.05 was determined using two sample independent student's t-test statistics with equal sample size and assuming equal variance.

[4] = system: 11778(G>A) mutant cybrids; assay: Effect of rotenone on complex I-driven ATP synthesis in mutant vs control osteosarcoma cybrids; type: cell-based
From the text: (§2) The data is presented as average+standard deviation from three independent experiments and single asterisk signifies the statistical significance (P<0.05) between the control and LHON mutant cells.
Among the various LHON-associated mutations, 11778(G>A) mutation encoding ND4 subunit of mitochondrial complex I is the most prevalent and the most severe (Oostra et al., J Med Genet, 1994, 31, 280-286). It has been previously hypothesized that some external stress factors are responsible for the precipitation of vision loss in LHON (Chalmers et al., Biochimica et Biophysica Acta, 1999, 1410, 147-158). To understand the 11778(G>A) mutant mitochondrial functionality under stress, we evaluated the effect of a complex I inhibitor on complex I-driven ATP synthesis using an osteosarcoma cybrid model (FIG. 11A).
Measurement of complex I-driven ATP synthesis: The cybrid cells were seeded at 50000 cells/well in 100 μL of medium, in a white, opaque-bottom, 96-well plate coated with poly-D-lysine (Corning) and was incubated at 37° C. overnight. […] After 2 hr incubation at 37° C., the medium from the plates were aspirated using an automatic plate washer (Biotek) and complex I-driven ATP synthesis was measured following the protocol of Yoshida and Fujikawa (Fujikawa et al., Biochemical and Biophysical Research Communications, 2010, 401, 538-543). […]

[5] = system: 11778 (G>A) mutant lymphoblasts; assay: Effect of rotenone on complex I-driven ATP synthesis in lymphoblasts; type: cell-based; details: gender-matched lymphoblasts
Method: as §2
For the lymphoblasts, drug-treated cells were centrifuged and resuspended at a concentration of 2×10^6 cells/mL, in the permeabilization buffer containing activated streptolysin O (Sigma). After 10 min incubation at 4° C., the cells were centrifuged and resuspended in transfer buffer at the same concentration. The cells were then incubated at 37° C. for 10 min followed by centrifugation and resuspension in buffer A containing malate (5 mM, Sigma), sodium pyruvate (5 mM, Sigma) and high purity ADP (200 μM, Apollo Scientific). Subsequently, 50 μL of buffer A containing 100,000 cells were plated in each wells of a 96-well plate. After 20 min of incubation at the room temperature the complex I-driven ATP synthesis was measured by using ATP Bioluminescence Assay Kit CLS II (Roche) following manufacturer's instruction.

Ndufs4 KO mice [6] = assay: Starburst amacrine cell count (ChAT staining of whole retina); type: in vivo, mouse; details: two weeks (P21-P35) intraperitoneal injections
Method: 20× confocal images of whole retina stained with ChAT (marker of starburst amacrine cells) from wild type (FIG. 22A), Ndusf4 KO vehicle treated (FIG. 22B), Ndufs4 KO papaverine treated (FIG. 22C), Ndufs4 KO zolpidem treated (FIG. 22D), and Ndufs4 KO rapamycin treated (FIG. 22E) are shown.
as §1

[7] = system: 11778 (G>A) mutant cybrid; assay: Mitochondrial copy number (MT-TL1/B2M ratio), mutant cybrids; type: cell-based; details: LHON mutant cells [11778(G>A)]; 24 hrs exposure
Method: (§3) FIGS. 14A-14C illustrate the effect of drugs on the mitochondrial copy number. Difference of mitochondrial copy number between 11778 (G>A) mutant and control cybrids (FIG. 14A). Effect of zolpidem and papaverine on the control healthy cybrid mitochondrial copy number (FIG. 14B) and 11778 (G>A) mutant cybrid mitochondrial copy number (FIG. 14C). Cells were treated with either vehicle or one of the drugs at specified concentration for 24 h. The cells were harvested after 24 h and the ratio between MT-TL1 and B2M was determined. Data is presented as average relative fold change±std. deviation from three independent observations. Statistical significance (p<0.05) is denoted by ‘*’ and was determined by one way ANOVA and Dunett's post hoc test.

Ndufs4 KO mice [8] = assay: Microglia activation (Iba1 staining of whole mount retinas); type: in vivo, mouse; details: two weeks (P21-P35) intraperitoneal treatment
control healthy cybrid = assay: Mitochondrial copy number (MT-TL1/B2M ratio), control cybrids; type: cell-based; details: control cells; 24 hrs exposure
Method: as §3

[9] = 20 h; read-out: Fold change of ATP synthesis rate greater than 2x Median Absolution Deviation

## Cn1cnc([N+](=O)[O-])c1Sc1ncnc2nc[nH]c12 [Azathioprine, azathioprine]
LHON cybrids (11778 G>A); [9]
  fold induction at 10 µM: 1.4

## O=c1[nH]cc(F)c(=O)[nH]1 [Fluorouracil, 5-fluorouracil]
LHON cybrids (11778 G>A); [9]
  fold induction at 10 µM: 1.1

## O=S(=O)(NCCNC/C=C/c1ccc(Br)cc1)c1cccc2cnccc12 [H89]
LHON cybrids (11778 G>A); H89 3 μM with zolpidem 30 μM
  effect of H89 on rotenone rescue effect of zolpidem: reversed the rotenone rescue effect of zolpidem
LHON cybrids (11778 G>A); papaverine 30 μM and H89 3 μM for 22 h, then rotenone 0.03 μM 2 h
  effect of PKA inhibitor on papaverine's protection from rotenone: did not decrease papaverine's ability to protect from rotenone

## C1N2CN3CN1CN(C2)C3 [Methenamine, methenamine]
LHON cybrids (11778 G>A); [9]
  fold induction at 10 µM: 1.3

## CN(Cc1cnc2nc(N)nc(N)c2n1)c1ccc(C(=O)N[C@@H](CCC(=O)O)C(=O)O)cc1 [Methotrexate, methotrexate]
LHON cybrids (11778 G>A); [9]
  fold induction at 10 µM: 1.2

## COc1ccc(OC)c(C(O)C(C)N)c1 (stereo not shown) [Methoxamine HCl, 2-amino-1-(2,5-dimethoxyphenyl)-1-propanol]
LHON cybrids (11778 G>A); [9]
  fold induction at 10 µM: 1.4

## CN1CCc2cc3c(cc2[C@H]1[C@@H]1OC(=O)c2c1ccc1c2OCO1)OCO3 [bicuculine, bicuculline]
LHON cybrids (11778 G>A); zolpidem 30 μM and bicuculline 30 μM for 22 h, then rotenone 0.03 μM 2 h
  effect of GABAA antagonist on reversal of rotenone inhibition by zolpidem: no significant effect

## COC1=C(OC)C(=O)C(CCCCCCCCCCO)=C(C)C1=O [idebenone]
Ndufs4 knockout mice
  visual function (median # edge detections): not significant
[1]
  innate immune/inflammatory gene expression (B2m, Tlr2, Cxcl10, Ccl5, Aif1) in retina: significantly inhibited a portion of the innate immune/inflammatory response

## CC[C@H]1/C=C/C=C/C[C@@H](C)[C@H](O)[C@@](C)(O)C(=O)[C@@H](C)[C@H](O)[C@@H](C)C(=O)[C@@H](C)[C@H](O)[C@@H](C)/C=C/C(=O)O[C@@H]2[C@H](C)[C@H](CC1)O[C@]1(CC[C@H](C)[C@H](C[C@@H](C)O)O1)[C@H]2C [oligomycin]
[2]
  mitochondrial ATP synthesis: inhibited the mitochondrial ATP synthesis

## CO[C@H]1C[C@@H]2CC[C@@H](C)[C@@](O)(O2)C(=O)C(=O)N2CCCC[C@H]2C(=O)O[C@H]([C@H](C)C[C@@H]2CC[C@@H](O)[C@H](OC)C2)CC(=O)[C@H](C)/C=C(\C)[C@@H](O)[C@@H](OC)C(=O)[C@H](C)C[C@H](C)/C=C/C=C/C=C/1C [rapamycin]
[3]
  transcripts with inhibition of mean amplitude of induction of inflammatory genes: 16/16

## C=C(C)[C@H]1Cc2c(ccc3c2O[C@@H]2COc4cc(OC)c(OC)cc4[C@@H]2C3=O)O1 [rotenone]
[4]; 3 most common LHON mutations in cybrids
  rotenone-dependent ATP synthesis defect across 11778, 3460 and 14484 mutant cybrids: directly in proportion to the severity of the disease in humans
[4]; rotenone 0.001 μM-1 μM, 24 h, mutant clones HCT22, HFF3 vs control HGA2, H1959
  sensitivity of complex I-driven ATP synthesis to rotenone: highly sensitive to rotenone when compared to control
[2]
  mitochondrial ATP synthesis: inhibited the mitochondrial ATP synthesis
[5]
  differential effect of rotenone on mutant vs control ATP synthesis: clearly reproducible

## O=C(O)CCC(=O)O [succinate]
[2]; succinate 5 mM vs rotenone, ascorbate/TMPD vs antimycin
  reversal of inhibitor-induced inhibition of ATP synthesis: reversed

## Cc1ccc(-c2nc3ccc(C)cn3c2CC(=O)N(C)C)cc1 [zolpidem]
Ndufs4 KO mice [6]
  starburst amacrine cell loss: significant protection of startburst amacrine cells from apoptosis
Ndufs4 knockout mice
  visual function (median # edge detections): visual function was preserved
[7]
  ratio of mtDNA/nDNA: did not significantly change the ratio of mtDNA/nDNA
Ndufs4 KO mice [8]
  microglia activation: decrease in microglia activation
Control healthy cybrid
  ratio of mtDNA/nDNA: did not significantly change the ratio of mtDNA/nDNA
LHON cybrids (11778 G>A); 20 h, read-out: Fold change of ATP synthesis rate greater than 2x Median Absolution Deviation
  fold induction at 10 µM: 1.4
LHON cybrids (11778 G>A); different concentrations of drug 22 h, then rotenone 0.03 μM 2 h
  reversal of rotenone sensitivity of complex I-driven ATP synthesis: dose-dependently reversed the rotenone-sensitivity
LHON cybrids (11778 G>A); zolpidem 30 μM pre-treatment; rotenone 0.03 μM
  ATP synthesis rate relative to vehicle-treated cells after rotenone: 2 times
LHON cybrids (11778 G>A); zolpidem 3, 10, and 30 μM pre-treatment; rotenone 0.03 μM
  ATP synthesis rate compared to vehicle pre-treated cells: significantly higher ATP synthesis rate
[1]
  innate immune/inflammatory gene expression (B2m, Tlr2, Cxcl10, Ccl5, Aif1) in retina: significantly inhibited a portion of the innate immune/inflammatory response

## antimycin A
[2]
  mitochondrial ATP synthesis: inhibited the mitochondrial ATP synthesis

Reference: patent publication US10792287B2, “Methods for treating mitochondrial diseases” (The Regents of the University of California, priority 2015, dated 2020)
